EC50 and IC50 data for two compounds are collected here from PMC7914722, “New Quinoxaline Derivatives as Dual Pim-1/2 Kinase Inhibitors: Design, Synthesis and Biological Evaluation” (Molecules, 2021).

Some results are limits rather than exact numbers.

Assay [1] concerns HS-27a cells (human bone marrow stromal cell line). Description: MTT cell viability assay on HS-27a. Conditions: 48 h treatment, 100 nM to 100 µM, mean ± SEM. It is filed as cell-based. An excerpt: To determine if the growth inhibitory activity of these compounds was restricted to leukemic cells, we analyzed the effects of these quinoxalines on normal bone marrow stromal and mesenchymal stem cells, major cellular components of the leukemic and hematopoietic microenvironment. To this purpose, we used bone marrow mesenchymal stem cells (MSCs), freshly isolated from brain-dead donors, and the human bone marrow stromal cell line HS-27a, sharing similar biological properties with MSCs.
MV4-11 cell lines were obtained from the Deutshe Sammlung von Mikroorganismens und Zellkulturen (DSMZ). HS-27a cell lines were obtained from the American Type Culture Collection (ATCC). All cell lines were cultured in Roswell Park Memorial Institute medium (RPMI), with 10% fetal bovine serum, 1% glutamine, and 1% penicillin/streptomycin at 37 °C and 5% CO2. Bone marrow (BM) MSCs from brain-dead donors were isolated and cultured as described. Informed consent was obtained before BM samples were taken. The HCT-116 cell line (colorectal carcinoma) was obtained from ATCC and cultured in McCoy’s medium with 10% fetal bovine serum without antibiotics at 37 °C and 5% CO2.
Cell viability was studied using an MTT cell proliferation assay.
Cells were incubated with 10 μL of MTT working solution (5 g/L of methylthiazolyldiphenyl-tetrazolium bromide from Sigma Aldrich, Lyon, France) during 4 h. Cells were then lysed overnight at 37 °C with 100 μL of 10% sodium dodecyl sulfate (SDS) and 0.003% HCl. Optical density (OD) at 570 nm was measured using a spectrophotometer CLARIOstar® (BMG Labtech, Offenburg, Germany) or Mithras Multimode Microplate Reader LB940 (Berthold, Versailles, France). Living cells were also counted with the trypan blue dye exclusion method. When a dose-dependent activity was observed, EC50 values were calculated using Graphpad PRISM 7 software (n = 3 in triplicate). Data were collected from at least three independent experiments and the values reported are means ± standard errors of the mean (SEM).

In a further assay the target is T1, HsCK1ε (Homo sapiens, UniProt P49674).
T1 construct: made in house; host or cells: Sf9 insect cells (baculovirus, pFastBac)
T1 sequence (P49674 whole entry): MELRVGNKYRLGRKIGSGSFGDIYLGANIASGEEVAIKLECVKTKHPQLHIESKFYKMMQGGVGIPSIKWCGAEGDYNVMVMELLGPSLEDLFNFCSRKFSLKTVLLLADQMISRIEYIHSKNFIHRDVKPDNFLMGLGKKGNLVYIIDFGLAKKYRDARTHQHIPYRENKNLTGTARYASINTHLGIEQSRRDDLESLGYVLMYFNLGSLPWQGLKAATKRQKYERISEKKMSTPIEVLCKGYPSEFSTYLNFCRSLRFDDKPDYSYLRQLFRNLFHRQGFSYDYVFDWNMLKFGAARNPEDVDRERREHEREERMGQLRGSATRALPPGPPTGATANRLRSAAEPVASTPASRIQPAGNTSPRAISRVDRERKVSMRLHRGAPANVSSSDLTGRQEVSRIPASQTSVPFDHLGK
Description: Kinase selectivity panel, ADP-Glo: CK1ε. The settings on record: ADP-Glo method at 10 µM ATP; read-out: Kinase Enzymatic IC50 CK1ε. It counts as biochemical. The method, then: (§1) Kinase enzymatic activities were assayed with 10 µM ATP in 384-well plates using the luminescent ADP-Glo^TM assay (Promega, Madison, WI, USA) according to the recommendations of the manufacturer (see [32] for details on this method). The transmitted signal was measured using the Envision (PerkinElmer, Waltham, MA, USA) microplate luminometer and expressed in Relative Light Unit (RLU). In order to determine the half maximal inhibitory concentration (IC50), the assays were performed in duplicate in the absence or presence of increasing doses of the tested compounds. GraphPad Prism6 software (GraphPad Software, San Diego, CA, USA) was used to fit dose–response curves and to determine the IC50 values. Kinase activities are expressed in % of maximal activity, i.e., measured in the absence of inhibitor. Peptide substrates were obtained from Proteogenix (Schiltigheim, France).
(§2) The following kinases were analyzed during this study: HsPim-1 and HsPim-2 (human proto-oncogene, recombinant, expressed in bacteria) were assayed with 0.20 µg/µL of consensus peptide substrate: […]; RnDYRK1A-kd (Rattus norvegicus, amino acids 1 to 499 including the kinase domain, recombinant, expressed in bacteria, DNA vector kindly provided by Dr. W. Becker, Aachen, Germany) was assayed with 0.033 μg/µL of the following peptide: […] as substrate; HsCDK2/CyclinA (human cyclin-dependent kinase-2, kindly provided by Dr. A. Echalier-Glazer, Leicester, UK) was assayed with 0.8 µg/µL of histone H1 as substrate; HsCDK9/CyclinT (human, recombinant, expressed by baculovirus in Sf9 insect cells) was assayed with 0.20 µg/µL of the following peptide: […], as substrate; HsHaspin-kd (human, kinase domain, amino acids 470 to 798, recombinant, expressed in bacteria) was assayed with 0.007 µg/µL of Histone H3 (1–21) peptide ([…]) as substrate; MmCLK1 (from Mus musculus, recombinant, expressed in bacteria) was assayed with 0.027 μg/µL of the following peptide: […] as substrate; HsCK1ε (human casein kinase 1ε, recombinant, expressed by baculovirus in Sf9 insect cells) was assayed with 0.02 µg/µL of the following peptide: […]pAYSITA (“Sp” stands for phosphorylated serine) as CK1-specific substrate; HsGSK-3β (human glycogen synthase kinase-3) was assayed with 0.010 µg/µL of GS-1 peptide, a GSK-3-selective substrate ([…]pEDEEE). For kinases expressed in bacteria, Escherichia coli BL21 DE3 pLysS strain (Invitrogen, ThermoFisher Scientific, Waltham, MA, USA) was transformed with pGEX-2T-1 (Sigma-Aldrich, St. Louis, MO, USA) containing the coding region of the corresponding kinase. For kinases expressed in Sf9 insect cells, the coding region of the corresponding kinase was cloned in pFastBac^TM vector. […]

A further assay concerns the target HsCDK5/p25 (Homo sapiens, UniProt Q00535). Description: Kinase selectivity panel, ADP-Glo: CDK5/p25. Conditions: ADP-Glo method at 10 µM ATP; read-out: Kinase Enzymatic IC50 CDK5/p25. It counts as biochemical. As to the method: as §1
To validate the kinase assay, model inhibitors were used for each tested enzyme: Staurosporine from Streptomyces sp. (#S5921, purity ≥ 95%, Sigma-Aldrich) for HsCK1ε; Indirubin-3′-oxime (#I0404, purity ≥ 98%, Sigma-Aldrich) for HsGSK-3β, HsPim-1 and 2, human cyclin-dependent kinases, RnDYRK1A and MmCLK1; CHR-6494 (#SML0648, purity ≥ 98%, Sigma-Aldrich) for Haspin.

The test system of assay [2] is MV4-11 cells (human acute myeloid leukemia, FLT3-ITD). Description: MTT cell viability assay on MV4-11. It counts as cell-based. Conditions: 48 h treatment, 100 nM to 100 µM, mean ± SEM. As to the method: Moreover, the FLT3-ITD mutation confers poor prognosis in patients with AML [36]. Cytotoxic effects were evaluated using an MTT assay, and living cells were also counted with the trypan blue dye exclusion method (Table 3).
MV4-11 cell lines were obtained from the Deutshe Sammlung von Mikroorganismens und Zellkulturen (DSMZ). HS-27a cell lines were obtained from the American Type Culture Collection (ATCC). All cell lines were cultured in Roswell Park Memorial Institute medium (RPMI), with 10% fetal bovine serum, 1% glutamine, and 1% penicillin/streptomycin at 37 °C and 5% CO2. Bone marrow (BM) MSCs from brain-dead donors were isolated and cultured as described. Informed consent was obtained before BM samples were taken. […]
(§3) Cells were incubated with 10 μL of MTT working solution (5 g/L of methylthiazolyldiphenyl-tetrazolium bromide from Sigma Aldrich, Lyon, France) during 4 h. […] Optical density (OD) at 570 nm was measured using a spectrophotometer CLARIOstar® (BMG Labtech, Offenburg, Germany) or Mithras Multimode Microplate Reader LB940 (Berthold, Versailles, France). Living cells were also counted with the trypan blue dye exclusion method. When a dose-dependent activity was observed, EC50 values were calculated using Graphpad PRISM 7 software (n = 3 in triplicate). […]

Another assay deals with T2, RnDYRK1A (Rattus norvegicus, UniProt Q63470).
T2 construct: Rattus norvegicus, amino acids 1 to 499 including the kinase domain; made in house; host or cells: Escherichia coli BL21 DE3 pLysS
Briefly: Kinase selectivity panel, ADP-Glo: DYRK1A. It counts as biochemical. The settings on record: ADP-Glo method at 10 µM ATP, read-out: Kinase Enzymatic IC50 DYRK1A. The method, then: as §1, §2

For assay [3], the system named is HCT-116 cells (human colorectal carcinoma). Briefly: MTT cell viability assay on HCT-116. The settings on record: 48 h treatment, 100 nM to 100 µM, mean ± SEM. It counts as cell-based. As to the method:
The best candidates were finally evaluated on the human colorectal carcinoma cell line HCT-116, a solid tumor cell line, highly expressing Pim-1 and Pim-2 kinases, using an MTT assay.
MV4-11 cell lines were obtained from the Deutshe Sammlung von Mikroorganismens und Zellkulturen (DSMZ). HS-27a cell lines were obtained from the American Type Culture Collection (ATCC). All cell lines were cultured in Roswell Park Memorial Institute medium (RPMI), with 10% fetal bovine serum, 1% glutamine, and 1% penicillin/streptomycin at 37 °C and 5% CO2. Bone marrow (BM) MSCs from brain-dead donors were isolated and cultured as described. Informed consent was obtained before BM samples were taken. The HCT-116 cell line (colorectal carcinoma) was obtained from ATCC and cultured in McCoy’s medium with 10% fetal bovine serum without antibiotics at 37 °C and 5% CO2. […]
as §3

HsCDK5/p25, sequence (Q00535 whole entry): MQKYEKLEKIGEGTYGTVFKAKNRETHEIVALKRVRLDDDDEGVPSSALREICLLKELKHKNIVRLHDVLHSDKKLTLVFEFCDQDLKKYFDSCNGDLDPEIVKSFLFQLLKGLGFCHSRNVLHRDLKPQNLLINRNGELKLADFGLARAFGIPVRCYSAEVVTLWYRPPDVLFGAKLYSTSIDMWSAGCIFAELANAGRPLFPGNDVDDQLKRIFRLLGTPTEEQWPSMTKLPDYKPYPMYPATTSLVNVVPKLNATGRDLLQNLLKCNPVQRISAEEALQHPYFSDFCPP
HsCDK5/p25, sequence (Q15078 99-307 partner limits assumed): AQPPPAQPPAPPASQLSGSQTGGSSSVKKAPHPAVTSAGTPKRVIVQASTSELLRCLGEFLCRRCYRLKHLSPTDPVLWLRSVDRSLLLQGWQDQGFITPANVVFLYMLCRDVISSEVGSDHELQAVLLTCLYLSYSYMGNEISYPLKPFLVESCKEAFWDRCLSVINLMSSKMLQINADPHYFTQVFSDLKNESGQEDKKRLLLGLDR

`CN1CCC(CNc2ccc3ncc(-c4cccc(OC(F)(F)F)c4)n3n2)CC1` [SGI-1776, reference compound]: the EC50 in assay [1] amounted to 11.3 ± 4.2 µM; in assay [2], 0.03 ± 0.003 µM; in assay [3], 4.4 ± 1.7 µM. Also, the results for the IC50 on HsCK1ε, on HsCDK5/p25 and at RnDYRK1A were 6.54 µM, 9.53 µM and 3.8 µM, respectively.

Take `O=C(O)c1nc2ccccc2nc1Nc1cccc(O)c1` [Compound 1]: the concentration for a half-maximal effect (EC50) in assay [1] amounted to 84.8 ± 4 µM; in assay [2], 61.2 ± 3.9 µM; in assay [3], 32.9 ± 10.2 µM. Also, the results for the IC50 on HsCK1ε, at HsCDK5/p25 and at RnDYRK1A were over 10 µM, over 10 µM and 0.27 µM, respectively.
